In brackets after ≈: the same amount, converted by molar mass.
Legend:
[1] = target: T1, L1 (Stenotrophomonas maltophilia, UniProt P52700); assay: Ki of metallo-β-lactamase inhibition, purified enzyme; assay type: biochemical; settings: 10-minute preincubation; nitrocefin substrate
T1 construct: made in house
Procedure: (§1) The majority of purified β-lactamase enzymes used in the study were either expressed and purified internally ([35]) or obtained from Emerald Biostructures (Bainbridge Island, WA, USA). L1 enzyme was purified as described in reference ([36]).
(§2) Enzymes were mixed with BLIs at concentrations varying from 160 to 0.0027 µM in 50-mM Na-phosphate pH7.0, 0.1-mg/mL bovide serum albumin (BSA) (buffer A; 20-µM ZnCl2 was also added for all metalloenzymes) and incubated for 10 minutes at 37°C. Nitrocefin (50 µM) (10 µM for SHV-12) or 100 µM of imipenem (prewarmed at 37°C for 10 minutes) was added, and substrate cleavage profiles were recorded at 37°C at 490 nm every 10 seconds for 10 minutes or at 294 nm every 30 seconds for 1 hour for nitrocefin and imipenem, respectively. […] Ki app values (Ki for metalloenzymes) were calculated by the method of Waley ([37]).

[2] = target: VIM-1 (Pseudomonas aeruginosa, UniProt A0A0F7KYQ8); assay: as above; assay type: biochemical; settings: 10-minute preincubation, nitrocefin substrate
Procedure: as §1, §2

[3] = system: isogenic efflux and porin mutants of K. pneumoniae and their NDM-1-producing derivatives; assay: MIC against isogenic efflux and porin mutants (Table 9); assay type: cell-based; settings: for BLI MIC / MIC: BLI alone; for MIC: Klebsiella pneumoniae
[4] = KPM1026a, Wild type, ATCC 43816, β-lactamase None, BLI 0 µg/mL
[5] = KPM1026a, Wild type, ATCC 43816, β-lactamase None, BLI 4 µg/mL
[6] = KPM1026a, Wild type, ATCC 43816, β-lactamase None, BLI 8 µg/mL
[7] = KPM1027, ramR*, β-lactamase None, BLI 0 µg/mL
[8] = KPM1027, ramR*, β-lactamase None, BLI 4 µg/mL
[9] = KPM1027, ramR*, β-lactamase None, BLI 8 µg/mL
[10] = KPM1281, Wild type, ATCC 43816, NDM-1, BLI 0 µg/mL
[11] = KPM1281, Wild type, ATCC 43816, NDM-1, BLI 4 µg/mL
[12] = KPM1281, Wild type, ATCC 43816, NDM-1, BLI 8 µg/mL
[13] = KPM1282, ramR*, NDM-1, BLI 0 µg/mL
[14] = KPM1282, ramR*, NDM-1, BLI 4 µg/mL
[15] = KPM1282, ramR*, NDM-1, BLI 8 µg/mL
[16] = KPM2013, mpK36_2040 ΔompK35, β-lactamase None, BLI 0 µg/mL
[17] = KPM2013, mpK36_2040 ΔompK35, β-lactamase None, BLI 4 µg/mL
[18] = KPM2013, mpK36_2040 ΔompK35, β-lactamase None, BLI 8 µg/mL
[19] = KPM2013, mpK36_2040 ΔompK35, β-lactamase None
[20] = KPM2040, mpK36_2040*, β-lactamase None, BLI 0 µg/mL
[21] = KPM2040, mpK36_2040*, β-lactamase None, BLI 4 µg/mL
[22] = KPM2040, mpK36_2040*, β-lactamase None, BLI 8 µg/mL
[23] = KPM2040, mpK36_2040*, β-lactamase None
[24] = KPM3820, mpK36_2040*, NDM-1, BLI 0 µg/mL
[25] = KPM3820, mpK36_2040*, NDM-1, BLI 4 µg/mL
[26] = KPM3820, mpK36_2040*, NDM-1, BLI 8 µg/mL
[27] = KPM3825, mpK36_2040 ΔompK35, NDM-1, BLI 0 µg/mL
[28] = KPM3825, mpK36_2040 ΔompK35, NDM-1, BLI 4 µg/mL
[29] = KPM3825, mpK36_2040 ΔompK35, NDM-1, BLI 8 µg/mL
[30] = KPM3825, mpK36_2040 ΔompK35, NDM-1

T1 sequence (P52700 34-290): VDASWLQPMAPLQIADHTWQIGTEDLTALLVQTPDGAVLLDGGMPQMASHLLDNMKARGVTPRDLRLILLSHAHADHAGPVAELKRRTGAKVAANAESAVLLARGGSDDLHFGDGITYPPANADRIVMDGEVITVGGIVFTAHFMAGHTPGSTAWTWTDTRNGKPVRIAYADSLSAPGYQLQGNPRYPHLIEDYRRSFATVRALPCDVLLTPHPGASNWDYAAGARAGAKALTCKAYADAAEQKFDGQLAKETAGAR

NCCN[C@H]1CC[C@H](CC(=O)N[C@H]2Cc3cccc(C(=O)O)c3OB2O)CC1 [Taniborbactam, taniborbactam]
Ki [1]: 17000 nM
Ki [2]: 31 ± 3 nM
Ki ([2]; listed as taniborbactam): ~30 nM
Cefepime MIC with BLIs [3, 4]: 0.03 µg/mL
Meropenem MIC with BLIs [3, 4]: 0.03 µg/mL
Cefepime MIC with BLIs [3, 5]: 0.03 µg/mL
Meropenem MIC with BLIs [3, 5]: 0.03 µg/mL
Cefepime MIC with BLIs [3, 6]: 0.03 µg/mL
Meropenem MIC with BLIs [3, 6]: 0.03 µg/mL
BLI MIC ([3]; KPM1026a, Wild type, ATCC 43816, β-lactamase None): >64 µg/mL
Cefepime MIC with BLIs [3, 7]: 0.25 µg/mL
Meropenem MIC with BLIs [3, 7]: 0.06 µg/mL
Cefepime MIC with BLIs [3, 8]: 0.25 µg/mL
Meropenem MIC with BLIs [3, 8]: 0.06 µg/mL
Cefepime MIC with BLIs [3, 9]: 0.25 µg/mL
Meropenem MIC with BLIs [3, 9]: 0.06 µg/mL
BLI MIC ([3]; KPM1027, ramR*, β-lactamase None): >64 µg/mL
Cefepime MIC with BLIs [3, 10]: 16 µg/mL
Meropenem MIC with BLIs [3, 10]: 32 µg/mL
Cefepime MIC with BLIs [3, 11]: 0.25 µg/mL
Meropenem MIC with BLIs [3, 11]: 0.125 µg/mL
Cefepime MIC with BLIs [3, 12]: 0.125 µg/mL
Meropenem MIC with BLIs [3, 12]: 0.06 µg/mL
BLI MIC ([3]; KPM1281, Wild type, ATCC 43816, NDM-1): >64 µg/mL
Cefepime MIC with BLIs [3, 13]: 32 µg/mL
Meropenem MIC with BLIs [3, 13]: 64 µg/mL
Cefepime MIC with BLIs [3, 14]: 0.5 µg/mL
Meropenem MIC with BLIs [3, 14]: 0.25 µg/mL
Cefepime MIC with BLIs [3, 15]: 0.5 µg/mL
Meropenem MIC with BLIs [3, 15]: 0.125 µg/mL
BLI MIC ([3]; KPM1282, ramR*, NDM-1): >64 µg/mL
Cefepime MIC with BLIs [3, 16]: 0.5 µg/mL
Meropenem MIC with BLIs [3, 16]: 0.25 µg/mL
Cefepime MIC with BLIs [3, 17]: 0.5 µg/mL
Meropenem MIC with BLIs [3, 17]: 0.25 µg/mL
Cefepime MIC with BLIs [3, 18]: 0.5 µg/mL
Meropenem MIC with BLIs [3, 18]: 0.25 µg/mL
BLI MIC [3, 19]: >64 µg/mL
Cefepime MIC with BLIs [3, 20]: 0.125 µg/mL
Meropenem MIC with BLIs [3, 20]: 0.125 µg/mL
Cefepime MIC with BLIs [3, 21]: 0.125 µg/mL
Meropenem MIC with BLIs [3, 21]: 0.125 µg/mL
Cefepime MIC with BLIs [3, 22]: 0.125 µg/mL
Meropenem MIC with BLIs [3, 22]: 0.125 µg/mL
BLI MIC [3, 23]: >64 µg/mL
Cefepime MIC with BLIs [3, 24]: 128 µg/mL
Meropenem MIC with BLIs [3, 24]: 128 µg/mL
Cefepime MIC with BLIs [3, 25]: 4 µg/mL
Meropenem MIC with BLIs [3, 25]: 8 µg/mL
Cefepime MIC with BLIs [3, 26]: 2 µg/mL
Meropenem MIC with BLIs [3, 26]: 4 µg/mL
BLI MIC ([3]; KPM3820, mpK36_2040*, NDM-1): >64 µg/mL
Cefepime MIC with BLIs [3, 27]: 256 µg/mL
Meropenem MIC with BLIs [3, 27]: 256 µg/mL
Cefepime MIC with BLIs [3, 28]: 8 µg/mL
Meropenem MIC with BLIs [3, 28]: 32 µg/mL
Cefepime MIC with BLIs [3, 29]: 4 µg/mL
Meropenem MIC with BLIs [3, 29]: 16 µg/mL
BLI MIC [3, 30]: >64 µg/mL

O=C(O)c1c(F)ccc2c1OB(O)[C@@H]1C[C@H]21 [Xeruborbactam, xeruborbactam]
Ki [1]: 1400 nM
Ki [2]: 32 ± 14 nM
Cefepime MIC with BLIs [3, 4]: 0.03 µg/mL
Meropenem MIC with BLIs [3, 4]: 0.03 µg/mL
Cefepime MIC with BLIs [3, 5]: 0.015 µg/mL
Meropenem MIC with BLIs [3, 5]: 0.015 µg/mL
Cefepime MIC with BLIs [3, 6]: 0.002 µg/mL
Meropenem MIC with BLIs [3, 6]: 0.008 µg/mL
Cefepime MIC with BLIs [3, 7]: 0.25 µg/mL
Meropenem MIC with BLIs [3, 7]: 0.06 µg/mL
Cefepime MIC with BLIs [3, 8]: 0.125 µg/mL
Meropenem MIC with BLIs [3, 8]: 0.015 µg/mL
Cefepime MIC with BLIs [3, 9]: 0.015 µg/mL
Meropenem MIC with BLIs [3, 9]: 0.004 µg/mL
Cefepime MIC with BLIs [3, 10]: 16 µg/mL
Meropenem MIC with BLIs [3, 10]: 32 µg/mL
Cefepime MIC with BLIs [3, 11]: 0.03 µg/mL
Meropenem MIC with BLIs [3, 11]: 0.06 µg/mL
Cefepime MIC with BLIs [3, 12]: 0.008 µg/mL
Meropenem MIC with BLIs [3, 12]: 0.004 µg/mL
Cefepime MIC with BLIs [3, 13]: 32 µg/mL
Meropenem MIC with BLIs [3, 13]: 64 µg/mL
Cefepime MIC with BLIs [3, 14]: 0.25 µg/mL
Meropenem MIC with BLIs [3, 14]: 0.125 µg/mL
Cefepime MIC with BLIs [3, 15]: 0.06 µg/mL
Meropenem MIC with BLIs [3, 15]: 0.03 µg/mL
Cefepime MIC with BLIs [3, 16]: 0.5 µg/mL
Meropenem MIC with BLIs [3, 16]: 0.25 µg/mL
Cefepime MIC with BLIs [3, 17]: 0.25 µg/mL
Meropenem MIC with BLIs [3, 17]: 0.125 µg/mL
Cefepime MIC with BLIs [3, 18]: 0.06 µg/mL
Meropenem MIC with BLIs [3, 18]: 0.06 µg/mL
Cefepime MIC with BLIs [3, 20]: 0.125 µg/mL
Meropenem MIC with BLIs [3, 20]: 0.125 µg/mL
Cefepime MIC with BLIs [3, 21]: 0.06 µg/mL
Meropenem MIC with BLIs [3, 21]: 0.06 µg/mL
Cefepime MIC with BLIs [3, 22]: 0.015 µg/mL
Meropenem MIC with BLIs [3, 22]: 0.03 µg/mL
Cefepime MIC with BLIs [3, 24]: 128 µg/mL
Meropenem MIC with BLIs [3, 24]: 128 µg/mL
Cefepime MIC with BLIs [3, 25]: 1 µg/mL
Meropenem MIC with BLIs [3, 25]: 4 µg/mL
Cefepime MIC with BLIs [3, 26]: 0.5 µg/mL
Meropenem MIC with BLIs [3, 26]: 1 µg/mL
Cefepime MIC with BLIs [3, 27]: 256 µg/mL
Meropenem MIC with BLIs [3, 27]: 256 µg/mL
Cefepime MIC with BLIs [3, 28]: 2 µg/mL
Meropenem MIC with BLIs [3, 28]: 8 µg/mL
Cefepime MIC with BLIs [3, 29]: 1 µg/mL
Meropenem MIC with BLIs [3, 29]: 2 µg/mL
MIC ([3]; ATCC43816, KPM1026a, Wild type, ATCC 43816, β-lactamase None): 16 µg/mL (≈ 72.1 µM)
MIC ([3]; ATCC43816, KPM1281, Wild type, ATCC 43816, NDM-1): 16 µg/mL (≈ 72.1 µM)
MIC [3, 19]: 32 µg/mL (≈ 144 µM)
MIC [3, 23]: 32 µg/mL (≈ 144 µM)
MIC ([3]; KPM3820, mpK36_2040*, NDM-1): 32 µg/mL (≈ 144 µM)
MIC [3, 30]: 32 µg/mL (≈ 144 µM)

Source: PMC10648875 (Antimicrobial Agents and Chemotherapy, 2023)
